Test results from EP0034752A1, “Phenoxyalkane derivative and processes for preparing same” (Tanabe Seiyaku Co., Ltd., priority 1980, dated 1981).

What was measured:
[1] = tested on: central nervous system in mice; assay: Anti-apomorphine activity (cage climbing) in mice; format: in vivo; conditions: Mus musculus, ip, 0.5 h; i.p., male mice; apomorphine hydrochloride 2.5 mg/kg s.c. 30 minutes later; dose decreasing number of climbing mice by 50 %; read-out: Effect on central nervous system (ED50, mg/kg) Anti-apomorphine activity
Procedure: (§1) The effect of a test compound on central nervous system was examined by the following methods.
(3) Anti-apomorphine activity:
A solution or suspension of a test compound in water or an aqueous carboxymethylcellulose solution was administered intraperitoneally to male mice weighing 18 to 20 g (each group consisting of 5 mice). Thirty minutes after administration of the test compound, apomorphine hydrochloride (2.5 mg/kg) was administered subcutaneously to the mice, and the number of the mice which could climb a cage was examined. The 50 % effective dose (ED50) of the test compound was estimated in terms of a dose which is necessary to decrease the number of the medicated mice which could climb the cage by 50 % of the number of a control group (i.e., non-medicated mice) which could climb the cage.

[2] = tested on: central nervous system in mice; assay: Effect on sodium hexobarbital-induced anesthesia in mice; format: in vivo; conditions: Mus musculus, ip, 0.5 h, male mice; sodium hexobarbital 100 mg/kg i.p. 30 minutes later; dose prolonging sleeping time twice that of control
Procedure: as §1
(2) Effect on sodium hexobarbital-induced anesthesia:
A solution or suspension of a test compound in water or an aqueous carboxymethylcellulose solution was administered intraperitoneally to male mice weighing 18 to 20 g (each group consisting of 5 mice). Thirty minutes after intraperitoneal administration of the test compound, sodium hexobarbital (100 mg/kg) was administered intraperitoneally to the mice, and the sleeping time was measured as the interval between the loss and recovery of the righting reflex. The 50.% effective dose (ED50) of the test compound was estimated in terms of dose which is necessary to prolong the sleeping time of the medicated mice twice as long as that of a control group (i.e., non-medicated mice).

[3] = tested on: central nervous system in mice; assay: Effect on spontaneous motor activity in mice; format: in vivo; conditions: Mus musculus, ip, 0.5 h; i.p., male mice; activity measured 30 minutes after administration; dose decreasing activity by 50 % of control; read-out: Effect on central nervous system (ED50, mg/kg) spontaneous mortor activity
Procedure: as §1
(1) Effect on spontaneous mortor activity:
A solution or suspension of a test compound in water or an aqueous carboxymethylcellulose solution was administered intraperitoneally to male mice weighing 18 to 20 g (each group consisting of 5 mice). Thirty minutes after administration of the test compound, the spontaneous mortor activity of the mice was measured with an animex activity meter for 5 minutes. The 50 % effective dose (ED50) of the test compound was estimated in terms of a dose which is necessary to decrease the mortor activity of the medicated mice by 50 % of that of a control group (i.e., non-medicated mice).

[4] = Maximum tolerated dose, i.p.; parameters: species or system mice; conditions: mouse, in vivo, ip
[5] = tested on: intracranial pressure in rats; assay: Effect of i.v. injection of test compounds on intracranial pressure in rats; format: in vivo; conditions: for Change (%) in intra-cranial pressure: dose one mg/kg, i.v. infusion in 5 w/v % mannitol, anesthetized male SD-rats, value before administration = 100
Procedure: (Effect of i.v., injection of test compounds on intracranial pressure in rats)
Male SD-rats weighing 500 to 800 g (each group consisting of 5 rats) were anesthetized with urethane. A solution of a test compound in an aqueous 5 w/v % mannitol solution was infused via the femoral vein at a rate of 0.2 ml/kg/minute for 20 minutes (when the test compound was used in the form of free base, said solution was prepared by dissolving it in an aqueous 5 w/v % mannitol solution with the aid of 0.5 N hydrochloric acid). Intracranial pressure (i.e., cerebrospinal fluid pressure in the cisterna magna) was continuously monitored via a canula introduced in the cisterna magna. The canula was connected to a transducer, and recording were made on graph paper. The effect of the test compound on-the intracranial pressure was estimated in terms of the increase or decrease in intracranial pressure, which was calculated in accordance with the following formula: […]

[6] = 40 minutes after administration
[7] = 60 minutes after administration
[8] = 120 minutes after administration

SMILES	ED50 [1] [mg/kg]	ED50 [2] [mg/kg]	ED50 [3] [mg/kg]	MTD [4] [mg/kg]	Change (%) in intra-cranial pressure [5, 6] [%]	Change (%) in intra-cranial pressure [5, 7] [%]	Change (%) in intra-cranial pressure [5, 8] [%]	decrease in the intracranial pressure ([5]; 40 minutes after administration, dose 1 mg/kg, infused via the femoral vein of rats in 5 w/v % mannitol for 20 minutes)
COc1cc(NC(C)=O)ccc1COCCCN1CCN(c2ccccc2)CC1 [1-(4-acetamido-2-methoxybenzyloxy)-3-(4-phenylpiperazino)-n-propane]	7	10	5	100				
COc1cc(NC(C)=O)ccc1OCC(C)CN1CCN(c2ccccc2)CC1 (centres unmarked) [1-(4-acetamido-2-methoxyphenoxy)-3-(4-phenylpiperazino)-2-methyl-n-propane]					66.4	73.8	83.8	
COc1cc(NC(C)=O)ccc1OCCCN1CCC(O)(c2ccc(Cl)cc2)CC1 [1-(4-acetamido-2-methoxyphenoxy)-3-[4-(4-chlorophenyl)-4-hydroxy-piperidino]-n-propane]					94.2	95.4	90.7	
CC(=O)Nc1ccc(COCCCN2CCN(c3ccccc3)CC2)cc1 [1-(4-acetamidobenzyloxy)-3-(4-phenylpiperazino)-n-propane]					77.0	83.1	97.9	about 23%
